From patent US20190192559A1, “COMBINATION OF PROTEASOME INHIBITORS AND ANTI-CD30 ANTIBODIES” (Millennium Pharmaceuticals, Inc., priority 2016, published 2019) come the findings set out here.

Holding throughout (format): in vivo
In assay [1] the test system is SUDHL-2 tumor cells (CD30+ human large cell lymphoma cell line). The experiment in a line: SUDHL-2 subcutaneous xenograft tumor efficacy model in CB17-SCID mice. The settings on record: for Average tumor volume day 24: in mm³ (unit assumed). On the procedure:
SUDHL-2 (2×10^6) tumor cells in RPMI-1640 media were aseptically injected into the subcutaneous space in the right dorsal flank of CB17-SCID female mice (Shanghai SLAC Laboratory Animal Co., LTD). SUDHL-2 is a CD30+ human large cell lymphoma cell line and was obtained from ATCC (Manassas, Va.).
(§1) Brentuximab vedotin (SGN-35), one vial (Seattle Genetics, 50 mg) was reconstituted in 50 ml 0.9% saline to give a stock solution of 1 mg/ml. The stock solution was then diluted again in 0.9% saline to reach the desired concentration and administered by intraperitoneal injection (IP) on q4D schedule for 21 days (SR-786), 14 days (Karpas-299) or 24 days (SUDHL-2) at 0.2 mg/kg, 0.4 mg/kg and 0.8 mg/kg.
(§2) The compound of formula (IIIa) was formulated in either 5% hydroxypropyl-beta-cyclodextrin (for SR-786 and Karpas-299 studies) or in 20% hydroxypropyl-beta-cyclodextrin for SUDHL-2 study. The amounts listed below in Tables 1a-3b are calculated based on the compound of formula (IV). The drug was administered by IV injection (1 cc syringe, 20-22 gauge) on BIW schedule at either 2 mg/kg or 8 mg/kg for 21 days (SR-786), 14 days (Karpas-299), or 24 days (SUDHL-2).
(§3) Tumors were measured twice weekly using a vernier caliper. Tumor volumes were calculated using standard procedures (0.5×(length×width^2)). When the tumors reached a volume of approximately 200 mm^3 for SR-786, 150 mm^3 for Karpas-299 and SUDHL-2, mice were randomized into 7-8 groups as described in the tables below, and injected with vehicle, compound of formula (IV) or SGN-35 or the combination of compound of formula (IV) with SGN-35, at various doses as described below in Tables 1a, 2a and 3a. Tumor size and body weight were measured approximately twice a week for the duration of the study. Mice were euthanized when their tumor volume reached 10% of their body weight, or when the average tumor volume of a treatment or control group reached approximately 2000 mm^3. Tumor growth continued to be monitored after the dosing period in this study. Tumor volume on study day 21 for all groups is shown in table 1a for SR-786 study; on study day 14 for all groups for Karpas-299 study in table 2a and on study day 24 for all groups for SUDHL-2 study in table 3a. Average tumor volume is reported as a function of time for all groups in FIG. 1 (SR-786), FIG. 2 (Karpas-299) and FIG. 3 (SUDHL-2). Tumor volumes were reported till the end of the study to capture re-growth.
(§4) The synergy analysis is based on the tumor volume data from day 0 to 21 for SR-786, days 0 to 14 for Karpas-299 and days 0 to 24 for SUDHL-2 and presented in table 1b, 2b and 3b. Volume measurements below 25 cubic mm are excluded from the analysis because very low volumes cannot be measured accurately. The remaining measurements are log transformed and fit to a simple linear model with the measurement day as a covariate. The data are fit separately for the different animals to yield an estimated tumor growth rate for each animal in each treatment group. Based on the growth rates, the synergy score for the combination of agents A and B is defined as
(§5) 100*(mean(μAB)−mean(μA)−mean(μB)+mean(μctl))/mean(μctl):
(§6) where μAB, μA, μB, and μctl are the mean tumor growth rates for animals in the combination group, the A group, the B group, and the control group, respectively. The standard error of the synergy score is computed based on the variation in the growth rates among the animals. […] If the P-value is above 0.05, then the combination is considered to be additive. If the P-value is below 0.05, and the synergy score is less than zero, then the combination is considered to be synergistic. […] Otherwise, the combination is classified as antagonistic.

Assay [2] concerns Karpas-299 tumor cells (CD30+ human large T cell lymphoma cell line). The assay is described as follows: Karpas-299 subcutaneous xenograft tumor efficacy model in CB17 SCID mice. The note with it: for Average tumor volume day 14: in mm³ (unit assumed). The protocol: Karpas-299 (0.5×10^6) tumor cells in RPMI-1640 media were aseptically injected into the subcutaneous space in the right dorsal flank of CB17 SCID female mice (Charles Rive Lab) using a 26 G ⅝ needle. Karpas-299 is a CD30+ human large T cell lymphoma cell line and was obtained from DSMZ (Braunschweig, Germany).
as §1, §2, §3, §4, §5, §6

Assay [3] has as its system SR-786 tumor cells (CD30+ human large T cell lymphoma cell line). The assay is described as follows: SR-786 subcutaneous xenograft tumor efficacy model in CB17 SCID mice. The note with it: for Average tumor volume day 21: in mm³ (unit assumed). The protocol:
SR-786 (6.0×10^6) tumor cells in RPMI-1640 media were aseptically injected into the subcutaneous space in the right dorsal flank of CB17 SCID female mice (Charles River Lab) using a 26 G ⅝ needle. SR-786 is a CD30+ human large T cell lymphoma cell line and was obtained from DSMZ (Braunschweig, Germany).
as §1, §2, §3, §4, §5, §6

Setting [4] is: SGN-35 0.2 mg/kg IP, compared to the control vehicle group.
Setting [5] is: SGN-35 0.4 mg/kg IP, compared to the control vehicle group.
The mark [6] stands for this setting: SGN-35 0.8 mg/kg IP, compared to the control vehicle group.
Setting [7] is: compound of formula (IV) 2 mg/kg BIW IV.
Setting [8] is: compound of formula (IV) 2 mg/kg IV.
Setting [9] is: compound of formula (IV) 8 mg/kg BIW IV.
The mark [10] stands for this setting: compound of formula (IV) 8 mg/kg IV.

For the compound SGN-35, the “day on which group was sacrificed” value in assay [1] (SGN-35 0.2 mg/kg (Group 4)) was 27 days; in assay [1] (SGN-35 0.4 mg/kg (Group 5)), 45 days; in assay [1] (SGN-35 0.8 mg/kg (Group 6)) it was 59 days; in assay [2] (SGN-35 0.2 mg/kg single agent), 25 days. Moreover, the tumor growth inhibition in assay [1] (setting [4]) is 12%; in assay [1] (setting [5]), 50%; in assay [1] (setting [6]) it was 82%; in assay [2] (setting [4]), 52%; in assay [2] (setting [5]), 100%; in assay [2] (setting [6]) it was 100%. The tumor growth inhibition in assay [3] (SGN-35 0.2 mg/kg IP) is recorded as 3%; in assay [3] (SGN-35 0.4 mg/kg IP) it was 70%; in assay [3] (SGN-35 0.8 mg/kg IP), 100%. In addition, the “Average tumor volume day 24” value in assay [1] (SGN-35 0.2 mg/kg Q4D IP) was 1352.3; in assay [1] (SGN-35 0.4 mg/kg Q4D IP), 774.2; in assay [1] (SGN-35 0.8 mg/kg Q4D IP) it was 274.9. In addition, the “Average tumor volume day 14” value is 647.4 in assay [2] (SGN-35 0.2 mg/kg Q4D IP), 0 in assay [2] (SGN-35 0.4 mg/kg Q4D IP) and 0 in assay [2] (SGN-35 0.8 mg/kg Q4D IP). In addition, the “mice tumor free at day 14” value in assay [2] (SGN-35 0.4 mg/kg single agent) and in assay [2] (SGN-35 0.8 mg/kg single agent) was “All the mice” in each case. Moreover, the “Average tumor volume day 21” value in assay [3] (SGN-35 0.2 mg/kg Q4D IP) is 1330; in assay [3] (SGN-35 0.4 mg/kg Q4D IP) it was 409.9; in assay [3] (SGN-35 0.8 mg/kg Q4D IP), 0. The “tumors found in mice on day 76” value in assay [3] (SGN-35 0.8 mg/kg single agent) was “No tumors were found in any mice”. Besides, the “mice tumor free on day 21 post treatment” value in assay [3] (SGN-35 0.8 mg/kg single agent (Group 6)) is on record as 7/7.

Regarding `CC(C)C[C@H](NC(=O)CNC(=O)c1cc(Cl)ccc1Cl)B(O)O` [compound of formula (IV), [(1R)-1-({[(2,5-dichlorobenzoyl)amino]acetyl}amino)-3-methylbutyl]boronic acid], the “Average tumor volume day 24” value in assay [1] (setting [7]) is 1449.3; in assay [1] (setting [9]), 1129.5. Further, the tumor growth inhibition is given as 6% in assay [1] (setting [8]); 26% in assay [1] (setting [10]); −16% in assay [2] (setting [8]); −43% in assay [2] (setting [10]); 10% in assay [3] (setting [8]); 63% in assay [3] (setting [10]). For the same compound, in assay [1] (two compound of formula (IV) treated groups (Group 2 and 3; 2 mg/kg and 8 mg/kg)), the “day on which group was sacrificed” value amounted to 27 days. Also, the “Average tumor volume day 14” value in assay [2] (setting [7]) was determined as 1600; in assay [2] (setting [9]) it was 1971.5. Besides, the “day on which group was sacrificed due to high tumor burden” value in assay [2] (compound of formula (IV) single agent groups (2 mg/kg and 8 mg/kg)) stood at 14 days. Further, the results for the “Average tumor volume day 21” value in assay [3] (setting [7]) and in assay [3] (setting [9]) were 1221.5 and 500.6, respectively.
